Laboratory results reported in patent US4201866A, “O-Hemi-succinate of propranolol” (American Home Products Corporation, priority 1977, dated 1980).
“And” between values parts separate entries of the source, which are not always exact repeats. Identical values can stand only once. Counter-ions that a name gives are not always drawn. Like-named read-outs stand apart in the source and are kept apart here.

Legend:
[1] = cited from earlier work
[2] = Oral administration of propranolol-o-hemi-succinate HCl and propranolol HCl; plasma levels of free propranolol (Example 2); type: in vivo, beagle dogs; settings: 80 mg propranolol HCl or equivalent
Experimental: In this experiment, four beagle dogs were given an 80 mg. oral dose of propranolol HCl or an equivalent dose of the o-hemi-succinate. The animals were divided into two groups of two, each group receiving the drugs according to a crossover design. The crossover experiment was repeated twice. A period of at least one week elapsed between each dosing day. Blood samples were obtained at regular intervals after dosing a plasma was analyzed for free propranolol concentrations.
(§1) Plasma was analyzed for free propranolol by a TLC fluorometric procedure. Two ml samples were mixed with 2 ml of pH 10 buffer and extracted with 25 ml of ethyl ether. A 20 ml aliquot from the ether phase was evaporated to dryness and the dry residue was dissolved in 100 μl of ethanol. Twenty-five μl aliquots were spotted on TLC plates of silica gel along with standard solutions of propranolol. The plates were developed in a saturated tank containing the solvent system methanol (100 ml): concentrated NH4 OH (0.4 ml). After development, the plates were dried and sprayed with a 50% solution of propylene glycol in water. They were then read in the fluorescence mode of a Schoeffel spectrodensitometer. The limit of reliable quantitation was 2 ng. of propranolol per ml of plasma.

[3] = Intravenous administration of propranolol HCl and propranolol-o-hemi-succinate HCl; plasma levels of free propranolol (Example 3); type: in vivo, beagle dogs; settings: i.v., 20 mg propranolol HCl or equivalent
Experimental: as §1
In this experiment, the same four dogs used in Example 2 were administered a 20 mg intravenous dose of propranolol HCl on one experimental day and an equivalent dose of the o-hemi-succinate on a second day. A period of one week elapsed between each administration. Blood samples were collected and analyzed as above.

[4] = Oral administration of a reduced dose of propranolol-o-hemi-succinate hydrochloride; plasma levels of free propranolol (Example 4); type: in vivo, beagle dogs
Experimental: Two beagle dogs were given an oral dose of 13.4 mg of propranolol-O-hemi-succinate hydrochloride (equivalent to 10 mg. propranolol HCl). Blood samples were obtained at regular intervals after drug administration and plasma analyzed for free propranolol. Plasma levels of free propranolol were compared to those obtained following administration of 80 mg dose of propranolol HCl.

SMILES: CC(C)NCC(O)COc1cccc2ccccc12 (centres unmarked) [propranolol HCl, 1-isopropyl-amino-3-(1-naphthoxy)-2-propanol]
- unchanged active material reaching the systemic circulation after oral administration ([1]; because of extensive metabolism): little unchanged active material
- patient to patient variation of plasma levels ([1]; oral): large patient to patient variation
- Plasma level of free propranolol ([2]; 0 h, individual dogs): 0 ng/mL
- Mean plasma level of free propranolol ([2]; 0 h, mean of Study 1, Study 2 or overall): 0 ng/mL
- C.V. of overall mean AUC 0-6 hr [2]: 65%
- s.d. of overall mean AUC 0-6 hr [2]: 87 ng·h/mL
- AUC 0-6 hr of free propranolol ([2]; individual dogs, listed as propranolol hydrochloride, 360 min): 69 ng·h/mL and 63 ng·h/mL and 29 ng·h/mL and 160 ng·h/mL and 189 ng·h/mL and 171 ng·h/mL and 297 ng·h/mL and 99 ng·h/mL
- Plasma level of free propranolol ([2]; 1/2 hr after dosing, individual dogs): 0 ng/mL
- Plasma level of free propranolol ([2]; 1/2 hr after dosing, individual dogs, 30 min, listed as propranolol hydrochloride, 30 min): 23 ng/mL and 103 ng/mL and 24 ng/mL
- Plasma level of free propranolol ([2]; 1/2 hr after dosing, individual dogs, listed as propranolol hydrochloride): trace
- Plasma level of free propranolol ([2]; 1 hr after dosing, individual dogs, listed as propranolol hydrochloride): trace and 0 ng/ml
- Plasma level of free propranolol ([2]; 1 hr after dosing, individual dogs, listed as propranolol hydrochloride, 60 min): 11 ng/mL and 56 ng/mL and 31 ng/mL and 101 ng/mL and 24 ng/mL
- Plasma level of free propranolol ([2]; 2 hr after dosing, individual dogs, listed as propranolol hydrochloride): trace
- Plasma level of free propranolol ([2]; 2 hr after dosing, individual dogs, listed as propranolol hydrochloride, 120 min): 23 ng/mL and 14 ng/mL and 45 ng/mL and 51 ng/mL and 65 ng/mL and 19 ng/mL
- Plasma level of free propranolol ([2]; 4 hr after dosing, individual dogs, listed as propranolol hydrochloride): trace
- Plasma level of free propranolol ([2]; 4 hr after dosing, individual dogs, listed as propranolol hydrochloride, 240 min): 26 ng/mL and 14 ng/mL and 12 ng/mL and 36 ng/mL and 33 ng/mL and 17 ng/mL
- Plasma level of free propranolol ([2]; 6 hr after dosing, individual dogs, listed as propranolol hydrochloride): 0 ng/ml and trace
- Plasma level of free propranolol ([2]; 6 hr after dosing, individual dogs, listed as propranolol hydrochloride, 360 min): 17 ng/mL and 21 ng/mL and 6 ng/mL
- half-life ([2]; dog, plasma): 1.8 h
- AUC at 6 h ([2]; dog, plasma, po, 80 mg, read-out: average AUC (0-6 hr.) of free propranolol, overall study): 132 ng·h/mL
- Plasma level of free propranolol ([3]; 0 h, individual dogs): 0 ng/mL
- Mean plasma level of free propranolol ([3]; 0 h, mean): 0 ng/mL
- Plasma level of free propranolol ([3]; 1/2 hr after dosing, individual dogs, 30 min): 232 ng/mL and 269 ng/mL and 144 ng/mL
- Plasma level of free propranolol ([3]; 5 min after dosing, individual dogs, 5 min): 391 ng/mL and 312 ng/mL and 376 ng/mL and 194 ng/mL
- Plasma level of free propranolol ([3]; 10 min after dosing, individual dogs, 10 min): 368 ng/mL and 319 ng/mL and 177 ng/mL
- Plasma level of free propranolol ([3]; 15 min after dosing, individual dogs, 15 min): 320 ng/mL and 271 ng/mL and 149 ng/mL
- Plasma level of free propranolol ([3]; 1 hr after dosing, individual dogs, 60 min): 207 ng/mL and 229 ng/mL and 128 ng/mL
- Plasma level of free propranolol ([3]; 2 hr after dosing, individual dogs, 120 min): 149 ng/mL and 119 ng/mL and 122 ng/mL
- Plasma level of free propranolol ([3]; 4 hr after dosing, individual dogs, 240 min): 114 ng/mL and 87 ng/mL and 61 ng/mL
- Plasma level of free propranolol ([3]; 6 hr after dosing, individual dogs, 360 min): 45 ng/mL and 28 ng/mL and 39 ng/mL
- concentration at 0.5 h ([3]; dog, plasma, iv, 20 mg, 1/2 hr after dosing, individual dogs, read-out: Plasma level of free propranolol): 280 ng/mL
- concentration at 0.5 h ([3]; dog, plasma, iv, 20 mg, 1/2 hr after dosing, mean, read-out: Mean plasma level of free propranolol): 231 ng/mL
- concentration at 5 min ([3]; dog, plasma, iv, 20 mg, 5 min after dosing, mean, read-out: Mean plasma level of free propranolol): 318 ng/mL
- concentration at 10 min ([3]; dog, plasma, iv, 20 mg, 10 min after dosing, mean, read-out: Mean plasma level of free propranolol): 288 ng/mL
- concentration at 0.25 h ([3]; dog, plasma, iv, 20 mg, 15 min after dosing, mean, read-out: Mean plasma level of free propranolol): 247 ng/mL
- concentration at 1 h ([3]; dog, plasma, iv, 20 mg, 1 hr after dosing, individual dogs, read-out: Plasma level of free propranolol): 240 ng/mL
- concentration at 1 h ([3]; dog, plasma, iv, 20 mg, 1 hr after dosing, mean, read-out: Mean plasma level of free propranolol): 201 ng/mL
- concentration at 2 h ([3]; dog, plasma, iv, 20 mg, 2 hr after dosing, individual dogs, read-out: Plasma level of free propranolol): 191 ng/mL
- concentration at 2 h ([3]; dog, plasma, iv, 20 mg, 2 hr after dosing, mean, read-out: Mean plasma level of free propranolol): 145 ng/mL
- concentration at 4 h ([3]; dog, plasma, iv, 20 mg, 4 hr after dosing, mean, read-out: Mean plasma level of free propranolol): 79 ng/mL
- concentration at 6 h ([3]; dog, plasma, iv, 20 mg, 6 hr after dosing, individual dogs, read-out: Plasma level of free propranolol): 53 ng/mL
- concentration at 6 h ([3]; dog, plasma, iv, 20 mg, 6 hr after dosing, mean, read-out: Mean plasma level of free propranolol): 41 ng/mL
- AUC at 6 h ([3]; dog, plasma, iv, 20 mg, individual dogs, read-out: AUC 0-6 hr of free propranolol): 974 ng·h/mL
- AUC at 6 h ([3]; dog, plasma, iv, 20 mg, read-out: average AUC of free propranolol): 746 ng·h/mL
- AUC 0-6 hr of free propranolol ([3]; individual dogs, 360 min): 744 ng·h/mL and 615 ng·h/mL and 534 ng·h/mL
- Plasma level of free propranolol ([4]; 0 h, 80 mg propranolol HCl or 13.4 mg hemi-succinate HCl, individual dogs): 0
- AUC of free propranolol ([4]; 13.4 mg hemi-succinate HCl or 80 mg propranolol HCl, dog #353 (101, 92), dog #250 (114, 168), 360 min): 168
- Plasma level of free propranolol ([4]; 1/2 hour after dosing, 80 mg propranolol HCl or 13.4 mg hemi-succinate HCl, individual dogs, 30 min): 18
- Plasma level of free propranolol ([4]; 1 hour after dosing, 80 mg propranolol HCl or 13.4 mg hemi-succinate HCl, individual dogs, 60 min): 44
- Plasma level of free propranolol ([4]; 2 hours after dosing, 80 mg propranolol HCl or 13.4 mg hemi-succinate HCl, individual dogs, 120 min): 51 and 24
- Plasma level of free propranolol ([4]; 4 hours after dosing, 80 mg propranolol HCl or 13.4 mg hemi-succinate HCl, individual dogs, 240 min): 26 and 7
- Plasma level of free propranolol ([4]; 6 hours after dosing, 80 mg propranolol HCl or 13.4 mg hemi-succinate HCl, individual dogs): 0
- AUC at 6 h ([4]; dog, plasma, po, 80 mg, 13.4 mg hemi-succinate HCl or 80 mg propranolol HCl, dog #353 (101, 92), dog #250 (114, 168)): 92 ng·h/mL
- concentration at 0.5 h ([4]; dog, plasma, po, 80 mg, 1/2 hour after dosing, 80 mg propranolol HCl or 13.4 mg hemi-succinate HCl, individual dogs, read-out: Plasma level of free propranolol): 10 ng/mL
- concentration at 1 h ([4]; dog, plasma, po, 80 mg, 1 hour after dosing, 80 mg propranolol HCl or 13.4 mg hemi-succinate HCl, individual dogs, read-out: Plasma level of free propranolol): 38 ng/mL
- concentration at 6 h ([4]; dog, plasma, po, 80 mg, 6 hours after dosing, 80 mg propranolol HCl or 13.4 mg hemi-succinate HCl, individual dogs, read-out: Plasma level of free propranolol): 9 ng/mL
